Patent US20210322582A1, “RADIOACTIVE IMIDAZOTHIADIAZOLE DERIVATIVE COMPOUND” (Nihon Medi-Physics Co., Ltd., priority 2018, published 2021)

How the values were obtained:
[1] = 1-octanol/PBS (pH 7.4) partition coefficient; assay type: physicochemical
Method: The 1-octanol/PBS (pH 7.4) partition coefficients of [^111In]ITDA1 and [^111In]ITDA2, which were obtained in Example 6, and [^111In]ITDA3 obtained in Example 10 were measured.
The above two phases were saturated with each other in advance, and 1-octanol (3 mL) and PBS (3 mL) were pipetted into a 15-mL test tube containing [^111In]ITDA1 (37 kBq), [^111In]ITDA2 (37 kBq), or [^111In]ITDA3 (370 kBq). The test tube was vortexed for 2 minutes and centrifuged (4,000 g, 5 minutes). 0.5 mL was taken from each of the 1-octanol phase and the PBS phase, and transferred to two test tubes, respectively for measurement. The residual PBS phase (1 mL), and newly prepared 1-octanol (3 mL) and PBS (2 mL) were pipetted into a new test tube. The amount of radioactivity in each test tube was measured by using a gamma counter. The partition coefficient was calculated by using the equation log Pow=log10[count1-octanol/countPBS]. As a result, the log Pow of [^111In]ITDA1 was −3.72±0.05, the log Pow of [^111In]ITDA2 was −2.32±0.01, and the log Pow of [^111In]ITDA3 was −3.47±0.09.

[2] = system: CA-IX-positive HT-29 cells; experiment: In vitro CA-IX affinity and specificity, cell binding, cells lysed at room temperature (Example 11); assay type: cell-based; settings: for Inhibition of cell binding by acetazolamide: HT-29 cells, AZ 50 μM, 21% or 1% oxygen, lysis at room temperature; for Selectivity of binding to CA-IX: HT-29 vs MDA-MB-231 cells, room temperature lysis
Method: (§1) HT-29 cells (purchased from Dainippon Sumitomo Pharma Co., Ltd.) and MDA-MB-231 cells (purchased from Dainippon Sumitomo Pharma Co., Ltd.) were incubated in a 12-well plate (2.0×10^5 cells/well) at 37° C. for 24 hours under an atmosphere of 5% carbon dioxide and 21% oxygen, and then further incubated at 37° C. for 24 hours under an atmosphere of 5% carbon dioxide and 21% or 1% oxygen. After the culture medium was removed, Dulbecco's modified Eagle's medium (DMEM, 1 mL) containing[^111In]ITDA1 (14 kBq), [^111In]ITDA2 (26 kBq), or [^111In]ITDA3 (37 kBq) was added to each well, and then the incubation was performed at 37° C. for 2 hours under an atmosphere of 5% carbon dioxide and 21% or 1% oxygen. In addition, a separate plate was incubated in a similar manner as in the above except that acetazolamide (AZ, 50 μM) was added to [^111In]ITDA1 (14 kBq), [^111In]ITDA2 (26 kBq), or [^111In]ITDA3 (37 kBq) as a competitive compound for CA-IX. After that, each well was washed with 1 mL of phosphate-buffered saline (PBS, pH 7.4) (manufactured by NACALAI TESQUE, INC.), and the cells were lysed at room temperature in an aqueous solution of 1 N sodium hydroxide ([^111In]ITDA1: 0.25 mL×2, [^111In]ITDA2: 0.5 mL×2, and [^111In]ITDA3: 0.2 mL×2). The amount of radioactivity bound to the cells was measured by a gamma counter (model name: Wallac 1470 Wizard, PerkinElmer, Massachusetts, made in U.S.A., the same applies to the following examples).
(§2) FIG. 3A is a graph showing whether or not the affinity of compound [^111In]ITDA1 for CA-IX in each of the HT-29 cells and the MDA-MB-231 cells is inhibited by the coexistence of acetazolamide (AZ). Further, FIG. 3B is a graph showing whether or not the affinity of compound [^111In]ITDA2 for CA-IX in each of the HT-29 cells and the MDA-MB-231 cells is inhibited by the coexistence of acetazolamide (AZ). Moreover, FIG. 3C is a graph showing whether or not the affinity of compound [^111In]ITDA3 for CA-IX in each of the HT-29 cells and the MDA-MB-231 cells is inhibited by the coexistence of acetazolamide (AZ).

[3] = system: CA-IX-negative MDA-MB-231 cells; experiment: as above; assay type: cell-based; settings: AZ 50 μM, 21% or 1% oxygen, lysis at room temperature
Method: as §1, §2

[4] = In vitro stability in mouse plasma; assay type: in vitro ADME; settings: 37° C.; for Stability in mouse plasma: 24-hour incubation; for Stability (intact (%)): mouse plasma
Method: Blood was collected from a ddy mouse (purchased from Shimizu Laboratory Supplies Co., Ltd.), and centrifuged (1,200 g, 10 minutes) in a venous blood collection tube (manufactured by Becton, Dickinson and Company). The blood plasma (200 μL) was separated, a saline solution (185 kBq) of [^111In]ITDA1, [^111In]ITDA2, or [^111In]ITDA3 was added into the blood plasma, and the obtained mixture was incubated at 37° C. for 1, 4, 8, and for 24 hours (n=3). Further, into the incubated mixture, acetonitrile (200 μL) was added, and then the mixture was centrifuged (10,000 g, 5 minutes), the supernatant was filtered with COSMONICE Filter (S) (0.45 μm, 4 mm) (manufactured by NACALAI TESQUE, INC.), and the filtrate was analyzed by RP-HPLC under the following conditions. In this regard, the intact % in FIGS. 4A and 4B was determined from the area percentage of the RP-HPLC elution pattern.
Column: Cosmosil Cis column (5C18-PAQ, 4.6×250 mm)
Mobile phase: water/acetonitrile/trifluoroacetic acid (90: 10: 0.1 (0 min)→60: 40: 0.1 (30 min)), and flow rate for analysis: 1.0 mL/min

[5] = system: CA-IX-positive HT-29 cells; experiment: In vitro CA-IX affinity and specificity, cell binding, cells lysed at 37° C. (Example 18); assay type: cell-based; settings: for Inhibition of cell binding by acetazolamide: HT-29 cells, normoxic and hypoxic; for Inhibition of cell binding by acetazolamide / Selectivity of binding to CA-IX: lysis at 37° C.; for Selectivity of binding to CA-IX: HT-29 vs MDA-MB-231 cells
Method: as §1
(§3) Example 18 was performed similarly as in Example 11 except that the cells were lysed in a constant temperature water bath at 37° C. The accumulation of radioactivity in each cell was expressed by % initial dose/mg protein obtained by dividing the ratio of the amount of radioactivity bound to each cell to the added amount of radioactivity by the amount of cell protein.

[6] = system: CA-IX-negative MDA-MB-231 cells; experiment: as above; assay type: cell-based; settings: for Inhibition of cell binding by acetazolamide: MDA-MB-231 cells, normoxic and hypoxic, lysis at 37° C.
Method: as §1, §3

[7] = 1% Oxygen AZ(+), acetazolamide 50 μM
[8] = 21% Oxygen AZ(+), acetazolamide 50 μM

SMILES	log Pow [1]	Inhibition of cell binding by acetazolamide [2]	Selectivity of binding to CA-IX [2]	Inhibition of cell binding by acetazolamide [3]	Stability in mouse plasma [4]	Amount of binding to HT-29 cells [5, 7] [% initial dose/mg protein]	Amount of binding to HT-29 cells ([5]; 1% Oxygen AZ(−)) [% initial dose/mg protein]	Amount of binding to HT-29 cells [5, 8] [% initial dose/mg protein]	Amount of binding to HT-29 cells ([5]; 21% Oxygen AZ(−)) [% initial dose/mg protein]	Inhibition of cell binding by acetazolamide [5]	Selectivity of binding to CA-IX [5]	Amount of binding to MDA-MB-231 cells [6, 7] [% initial dose/mg protein]	Amount of binding to MDA-MB-231 cells ([6]; 1% Oxygen AZ(−)) [% initial dose/mg protein]	Amount of binding to MDA-MB-231 cells [6, 8] [% initial dose/mg protein]	Amount of binding to MDA-MB-231 cells ([6]; 21% Oxygen AZ(−)) [% initial dose/mg protein]	Inhibition of cell binding by acetazolamide [6]	other results
NS(=O)(=O)c1nn2cc(-c3ccc(NC(=O)CN4CCN(CC(=O)O)CCN(CC(=O)O)CCN(CC(=O)O)CC4)cc3)nc2s1.[111In+3] [[^111In]ITDA1, [^111In]indium(III)2,2′,2″-(10-(2-oxo-2-((4-(2-sulfamoylimidazo[2,1-b][1,3,4]thiadiazol-6-yl)phenyl)amino)ethyl)-1,4,7,10-tetraazacyclododecan-1,4,7-triyl) triacetic acid]	−3.72±0.05	the inhibition was observed in the presence of acetazolamide	selectively bind to the CA-IX	the competitive inhibition was not observed	sufficient stability	2.2 ± 0.5	198.9 ± 5.7	0.9 ± 0.2	118.1 ± 21.4	the inhibition was observed in the presence of acetazolamide	selectively bind to the CA-IX	0.1 ± 0.0	6.5 ± 0.8	0.1 ± 0.0	1.4 ± 0.3	the competitive inhibition was not observed	
NS(=O)(=O)c1nn2cc(-c3ccc(NC(=O)CN4CCN(CC(=O)O)CCN(CC(=O)Nc5ccc(-c6cn7nc(S(N)(=O)=O)sc7n6)cc5)CCN(CC(=O)O)CC4)cc3)nc2s1.[111In+3] [[^111In]ITDA2, [^111In]indium(III)2,2′-(4,10-bis(2-oxo-2-((4-(2-sulfamoylimidazo[2,1-b][1,3,4]thiadiazol-6-yl)phenyl)amino)ethyl)-1,4,7,10-tetraazacyclododecan-1,7-diyl) diacetic acid]	−2.32±0.01	the inhibition was observed in the presence of acetazolamide	selectively bind to the CA-IX	the competitive inhibition was not observed	sufficient stability	12.1 ± 3.7	109.2 ± 6.7	7.6 ± 2.3	48.3 ± 5.9	the inhibition was observed in the presence of acetazolamide	selectively bind to the CA-IX	0.7 ± 0.1	2.9 ± 0.4	1.4 ± 0.2	2.5 ± 0.5	the competitive inhibition was not observed	
NS(=O)(=O)c1nn2cc(-c3ccc(NC(=O)CCC(C(=O)O)N4CCN(CC(=O)[O-])CCN(CC(=O)[O-])CCN(CC(=O)[O-])CC4)cc3)nc2s1.[111In+3] (stereo not shown) [[^111In]ITDA3]	−3.47±0.09	the inhibition was observed in the presence of acetazolamide	selectively bind to the CA-IX	the competitive inhibition was not observed		1.0 ± 0.1	93.4 ± 16.0	0.3 ± 0.0	47.2 ± 6.8	the inhibition was observed in the presence of acetazolamide	selectively bind to the CA-IX	0.1 ± 0.0	2.0 ± 1.1	0.2 ± 0.0	0.5 ± 0.1	the competitive inhibition was not observed	Stability (intact %) in mouse plasma ([4]; incubation for 1 to 24 hours): ≥ 95%; Stability (intact (%)) ([4]; 1 h): 97.4 ± 0.8%; Stability (intact (%)) ([4]; 4 h): 99.0 ± 0.6%; Stability (intact (%)) ([4]; 8 h): 98.0 ± 0.1%; Stability (intact (%)) ([4]; 24 h): 98.8 ± 0.4%
